The values that follow are results of earlier work, collected in US20220031715A1, “COMPOSITIONS AND METHODS FOR ENHANCING WOUND HEALING” (priority 2018, published 2022).

For data set [1], the system named is NR1I2/PAR, NR1i2/PXR, ESR1, NFE2L2/HEBP1, NR1 L3/CAR, and TSHR. The note with it: at least six receptors.

In the case of `O=P(Oc1ccccc1)(Oc1ccccc1)Oc1ccccc1` [TPP, triphenyl phosphate], in the data set on mammals, the toxicity entry was “very low toxicity”. For the same compound, the “activation of hormone receptors” value in data set [1] was “activates”.
